Measurements: PubChem BioAssay AID1159565 (GlaxoSmithKline (GSK), 2015)
Calls of active or inactive are those of the source. The rule behind the calls is not given here.

Tested on: T. cruzi-infected H9C2 cardiomyocytes, high-content imaging
Test: intracellular T. cruzi amastigote inhibition, imaging, H9C2 host cardiomyocytes, host toxicity (AID 1159565);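 note: infected cells incubated 72 h after plating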
[1] = measured here: H9C2 host cell toxicity
[2] = measured here: amastigotes per cell

| Structure (SMILES) | IC50 | IC50 [1] [nM] | IC50 [2] [nM] |
| --- | --- | --- | --- |
| O=c1ccn(-c2ccc([N+](=O)[O-])cc2Cl)c2ccc(F)cc12 | 4000 nM | > 50000 | 1300 |
| COc1ccnc2[nH]cc(-c3cc(C(=O)N[C@H](CO)c4ccccc4)co3)c12 | 20000 nM | 320 | 7900 |
| O=C(Cc1ccccc1)Nc1ccccc1C(=O)Nc1nccs1 | > 50000 nM (inactive) | > 50000 | > 50000 |
| O=C(Nc1nc2ccccc2[nH]1)c1ccc2nc[nH]c2c1 | > 50000 nM (inactive) | > 50000 | 50000 |
| O=C(Nc1cccc(S(=O)(=O)Nc2ccc(Br)cc2)c1)c1ccc([N+](=O)[O-])s1 | 130 nM | 2500 | 100 |
| CN(C)c1ccc(N)cc1CN(CC1CCCO1)S(C)(=O)=O (stereo unspecified) | > 50000 nM (inactive) | > 50000 | > 50000 |
| O=[N+]([O-])c1ccc(-c2nnn(-c3cccnc3)n2)o1 | > 50000 nM (inactive) | 6300 | 63 |
| CC(C)n1c(-c2nonc2N)nc2cccc(OCCN3CCCC3)c21 | 16000 nM | 32000 | 25000 |
| Cc1cc(N2CCc3ccccc3C2)nc(Nc2ccc(S(=O)(=O)N3CCOCC3)cc2)n1 | > 50000 nM (inactive) | > 50000 | 25000 |
| COc1ccc(Nc2nc(-c3ccccn3)cc(N3CCCC(O)C3)n2)cc1 (stereo unspecified) | 5000 nM | 4000 | 7900 |
| COc1ccc2ncc(F)c(NC(=O)C3(O)CCC(NCc4ccc5c(c4)OCCO5)CC3)c2n1 (stereo unspecified) | 130 nM | 32000 | 160 |
| CN(Cc1cccnc1)Cc1ccc(N2CCN(C(=O)C3(c4ccc(Cl)cc4)CC3)CC2)nc1 | 1600 nM | > 50000 | 1300 |
| CCCn1c(NC(=O)Cc2ccc(Cl)cc2)nc2ccccc21 | 2000 nM | > 50000 | 1300 |
| CN(CCOc1ccc(Cl)cc1)Cc1nc(N)nc(N(C)C)n1 | 10000 nM | > 50000 | 7900 |
| COc1ccc(C2=NCC(CSc3nnc(-c4ccc5c(c4)OCO5)o3)S2)cc1 (stereo unspecified) | 500 nM | > 50000 | 320 |
| O=C(c1ccccc1)N1CCC(C(=O)N2CCC(Oc3ccccc3Cl)CC2)CC1 | 32000 nM | > 50000 | 25000 |
| NCC(Cc1ccccc1)NC(=O)c1cnc(-c2c[nH]c3ncccc23)s1 (stereo unspecified) | > 50000 nM (inactive) | 630 | 20000 |
| COc1ncc(-c2ccc3nccc(-c4ccncc4)c3c2)cc1NS(C)(=O)=O | 25000 nM | 5000 | 13000 |
| c1cc(-c2ncc(-c3ccn[nH]3)s2)ccn1 | 250 nM | > 50000 | 250 |
| Clc1cc(Br)ccc1OCCCCn1ccnc1 | 250 nM | 25000 | 320 |
| CN(C)S(=O)(=O)c1cccc(C(=O)Nc2nc(-c3ccccn3)cs2)c1 | 1600 nM | 7900 | 1000 |
| O=C(NCc1ccc(Cl)cc1)C1CN(C(=O)c2ccc(F)cc2)CCS1 (stereo unspecified) | 40000 nM | > 50000 | 32000 |
| O=C(COc1ncnc2cc([N+](=O)[O-])ccc12)NC(=O)NC1CCCCC1 | 1000 nM | > 50000 | 500 |
| N#Cc1ccc(C(=O)Nc2cccc(-c3cccc(CN4CCC(O)CC4)c3)c2)cc1 | 7900 nM | 32000 | 7900 |

| Structure (SMILES) | IC50 | IC50 [1] [nM] | IC50 [2] [nM] |
| --- | --- | --- | --- |
| COCc1cc(Nc2ccccc2)nc(-c2ccccn2)n1 | 25000 nM | 4000 | 13000 |
| N#Cc1cccc(Cc2cc(Nc3cc(C4CC4)[nH]n3)nc(N3CC[C@H]3C(N)=O)n2)c1 | 4000 nM | 4 | 1000 |
| O=C(NC1C(=O)N(c2ccccc2)C1c1cccnc1)c1ccc(Cl)s1 (stereo unspecified) | 50 nM | > 50000 | 40 |
| O=C1CN(Cc2ccco2)C2CS(=O)(=O)CC2N1c1ccc(Cl)cc1 (stereo unspecified) | > 50000 nM (inactive) | > 50000 | > 50000 |
| COc1cccc(Nc2cc(C)nc(-c3ccccn3)n2)c1 | 13000 nM | 5000 | 7900 |
| CC(C)Nc1nccc(-c2c(-c3ccc(F)cc3)ncn2C2CCOCC2)n1 | 320 nM | > 50000 | 200 |
| N#Cc1cc(N2CCCC2=O)ccc1Sc1ccccc1CO | 400 nM | > 50000 | 250 |
| COc1ccc(C)cc1-c1csc(NC(=O)C(C)n2ccnc2)n1 (stereo unspecified) | 100 nM | > 50000 | 100 |
| Cc1nc(-c2nc(NCc3ccc(Cl)cc3)c3cccnc3c2O)n[nH]1 | 790 nM | 25000 | 1300 |
| CNS(=O)(=O)c1ccccc1Nc1nc(Nc2ccnn2C)ncc1Cl | 1000 nM | 160 | 630 |
| NS(=O)(=O)c1ccc(CNC(=O)c2ccc([N+](=O)[O-])s2)cc1 | 5000 nM | 20000 | 790 |
| Cc1ccc(NC(=O)c2ccc(Cl)c(NC(=O)c3ccc([N+](=O)[O-])cc3)c2)cc1 | 500 nM | > 50000 | 200 |
| Cc1occc1C(=O)Nc1ccccc1C(=O)Nc1nccs1 | > 50000 nM (inactive) | > 50000 | 32000 |
| c1ccc(-c2nc(NCc3ccco3)c3ccccc3n2)nc1 | 3200 nM | 2000 | 4000 |
| COc1ccc2ncc(=O)n(CCN3CCOC(CNCc4ccc(C(F)(F)F)cc4F)C3)c2n1 (stereo unspecified) | 1600 nM | > 50000 | 630 |
| CCCc1cc(C(=O)Nc2ncc(-c3cccc(Br)c3)n2C)n[nH]1 | 4000 nM | > 50000 | 2500 |
| O=C(CC1(O)C(=O)N(Cc2cccs2)c2ccc(Br)cc21)c1cccnc1 (stereo unspecified) | 40000 nM | 4000 | 25000 |
| CNS(=O)(=O)c1ccccc1Nc1nc(Nc2cc(C)nn2C)ncc1Cl | 790 nM | 250 | 500 |
| Oc1c(-c2n[nH]c(CCc3ccccc3)n2)ncc2cccnc12 | 200 nM | 16000 | 200 |
| C=CCN(Cc1cccs1)C(=O)CSc1nnc(-c2ccc3c(c2)OCO3)o1 | 630 nM | > 50000 | 500 |
| Cc1[nH]c2ccccc2c(=O)c1Cc1c(C)[nH]c2ccccc2c1=O | 3200 nM | > 50000 | 1000 |
| Clc1ccc(C(CC2CCCCO2)Cn2cncn2)c(Cl)c1 (stereo unspecified) | 1300 nM | > 50000 | 1000 |
| NC(=O)c1cc(NC(=O)c2ccccc2COc2ccccc2)ccc1Cl | 32000 nM | > 50000 | 25000 |
| CN(C)Cc1ccc(N2CCC(NS(=O)(=O)c3ccc(Cl)cc3)CC2)cc1 | 320 nM | 13000 | 250 |

| Structure (SMILES) | IC50 | IC50 [1] [nM] | IC50 [2] [nM] |
| --- | --- | --- | --- |
| CCCNC(=O)Nc1cccc(-c2nc3ncccc3o2)c1 | 4000 nM | 25000 | 3200 |
| Cc1cc2ncn(-c3ccc([N+](=O)[O-])cc3C#N)c2cc1C | 2000 nM | > 50000 | 790 |
| O=C(CSc1ccc(-c2ccccn2)nn1)Nc1ccc(Cl)cc1 | 2500 nM | > 50000 | 2000 |
| COc1ccc(C(=O)Nc2cc(C(F)(F)F)ccc2N2CCOCC2)c(OC)c1 | 790 nM | > 50000 | 320 |
| N#Cc1cnc(Nc2cccc(CCN3CCOCC3)c2)nc1Nc1ccccc1C(N)=O | 3200 nM | 13 | 2000 |
| c1cncc(CN(Cc2ccco2)Cc2cn[nH]c2-c2cccs2)c1 | 50 nM | > 50000 | 40 |
| CCC(=O)Nc1ccc(-c2nc3ccc(Cl)cc3[nH]2)cc1 | 1600 nM | > 50000 | 500 |
| O=C(Nc1cccc(F)c1)N1CCC(Oc2cccc(-c3cccnc3)c2)CC1 | 630 nM | 25000 | 500 |
| COc1ccc(OC)c2c(=O)c(Cc3ccccc3)c(C)[nH]c12 | 500 nM | > 50000 | 130 |
| O=C(NCCc1cccnc1)c1csc(-c2ccccc2)n1 | 500 nM | > 50000 | 400 |
| Cc1nc(-c2ccc3c(c2)OCO3)sc1C(=O)NCc1ccc2c(c1)OCO2 | 790 nM | > 50000 | 500 |
| O=C(NCCc1ccn(-c2ccccc2)n1)C1CCCCC1 | 1000 nM | > 50000 | 1000 |
| COc1ncc(-c2ccc3ncnc(N4CCOCC4)c3c2)cc1NS(C)(=O)=O | 6300 nM | 1600 | 2500 |
| Cc1cc(NC(=O)C2CC2)ccc1OC1CCN(Cc2ccco2)CC1 | 40000 nM | 40000 | 20000 |
| Cc1cc2nc(CN(C)Cc3ncccc3C)[nH]c2cc1C | 1000 nM | 13000 | 500 |
| O=C(COc1nn(-c2ccccc2)c2ncccc12)NCc1ccccc1 | > 50000 nM (inactive) | > 50000 | 32000 |
| O=C(C1CCCCC1)N1CCN(c2nnc(-c3ccccc3)c3ccccc23)CC1 | 630 nM | > 50000 | 400 |
| CCN(Cc1ccncc1)Cc1ccc(NC(=O)c2cc(-c3ccc(F)cc3)n[nH]2)cc1 | 250 nM | > 50000 | 250 |
| CC(=O)Nc1ccc(Nc2nccc(-c3cnn4ncccc34)n2)cc1C(F)(F)F | 500 nM | 63 | 200 |
| O=C(c1ccc(O)c(Cl)c1)N1CCN(c2cnccn2)CC1 | > 50000 nM (inactive) | > 50000 | 10000 |
| O=c1cc(NCCCNCc2cc(C(F)(F)F)cs2)[nH]c2ccccc12 | > 50000 nM (inactive) | 32000 | 5000 |
| CC1CCCN(S(=O)(=O)c2ccc(C(=O)Nc3nc(-c4ccccn4)cs3)cc2)C1 (stereo unspecified) | 500 nM | 3200 | 250 |
| O=C(Cc1ccccc1)Nc1[nH]nc2sc(C(=O)NC3CCCC3)cc12 | 13000 nM | 1300 | 6300 |
| O=C(NCCc1csc(-c2ccc(F)cc2)n1)c1ccco1 | 1600 nM | > 50000 | 1300 |
